In data set [1] the test system is A549, HCT116, SK-HEP-1, and HL-60. Details: method as in PMID 29641986. Particulars: four cancer cell lines; cited from earlier work.
The test system of data set [2] is MCF-7 cells. Particulars: cited from earlier work.
Data set [3] has as its system HeLa cells. Particulars: cited from earlier work.
Data set [4] has as its system A2780 cells. Details: method as in doi:10.1016/j.arabjc.2023.104777. Particulars: previous work; cited from earlier work.
For data set [5], the system named is MCF-7 cells. Kind of data set: MTT antiproliferative assay, MCF-7 breast cancer cells. Particulars: for inhibition at 10 µM / inhibition at 30 µM: Homo sapiens, read-out: Inhibition (%) ± SEM. The data set is classed as cell-based, human. The source says:
(§1) The antiproliferative activities of the isolated compounds were investigated on a panel of human adherent cancer cell lines using the 3-(4,5-dimethylthiazol-2-yl)-2,5-diphenyltetrazolium bromide) (MTT) assay. Cell lines isolated from cervical (HeLa and SiHa), breast (MCF-7 and MDA-MB-231), ovarian cancers (A2780), and non-malignant mouse fibroblasts (NIH/3T3) were purchased from the European Collection of Cell Cultures (Salisbury, UK). The SiHa cell line was obtained from the […] (Manassas, VA, USA). The cell culturing and determination of the antiproliferative effects of the isolated compounds were conducted using a methodology described previously. Calculations were performed using GraphPad Prism 5.01 software (GraphPad Software Inc., San Diego, CA, USA).
(§2) The antiproliferative properties of centrapalus coumarins N (2) and O (5) were investigated against a panel of human adherent tumor cell lines of gynecological origin by in vitro MTT assay (Table 4). The amounts of the other compounds were insufficient for the in vitro assay. Compounds 2 and 5 were tested on the breast (MCF-7, MDA-MB-231), cervical (HeLa, SiHa), and ovarian (A2780) cancer cells in two concentrations (10 and 30 µM). The anticancer agent cisplatin was used as a positive control. […] Non-cancerous mouse fibroblasts (NIH/3T3) were additionally included to characterize the cancer selectivity of the tested compounds. Since compounds 2 and 5 elicited weak action against fibroblasts, lower than against the ovarian cancer cells, their effect detected on A2780 cells could be regarded as selective.

Data set [6] deals with MDA-MB-231 cells. The data set is described as follows: MTT antiproliferative assay, MDA-MB-231 breast cancer cells. Particulars: for inhibition at 10 µM / inhibition at 30 µM: Homo sapiens, read-out: Inhibition (%) ± SEM. The format is cell-based, human.
Text: as §1, §2

Data set [7] relates to HeLa cells. The data set is described as follows: MTT antiproliferative assay, HeLa cervical cancer cells. Particulars: for inhibition at 10 µM / inhibition at 30 µM: Homo sapiens, read-out: Inhibition (%) ± SEM. The data set is classed as cell-based, human.
Text: as §1, §2
A general note: Formazan colour is commonly taken as a measure of viable cells.

Data set [8] has as its system SiHa cells. The data set is described as follows: MTT antiproliferative assay, SiHa cervical cancer cells. The format is cell-based, human. Particulars: for inhibition at 10 µM / inhibition at 30 µM: Homo sapiens, read-out: Inhibition (%) ± SEM.
Text: as §1, §2

The subject of data set [9] is A2780 cells. The data set is described as follows: MTT antiproliferative assay, A2780 ovarian cancer cells. The format is cell-based, human. Particulars: for IC50: A2780, read-out: Calculated IC50 Value (converted); for inhibition at 10 µM / inhibition at 30 µM: read-out: Inhibition (%) ± SEM.
Text: as §1, §2

Data set [10] deals with NIH/3T3 mouse fibroblasts. Kind of data set: MTT antiproliferative assay, non-malignant NIH/3T3 fibroblasts. The format is cell-based. Particulars: for inhibition at 10 µM / inhibition at 30 µM: Mus musculus, NIH3T3, read-out: Inhibition (%) ± SEM; for action against fibroblasts (in words): NIH/3T3, lower than against the ovarian cancer cells.
Text: as §1, §2

The subject of data set [11] is MCF-7, MDA-MB-231, HeLa, SiHa and A2780 cells. Particulars: previous antiproliferative assay; cited from earlier work.
Data set [12] concerns SiHa cells. Set-up: method as in doi:10.1016/j.arabjc.2023.104777. Particulars: previous work; cited from earlier work.
Data set [13] deals with Leishmania major promastigotes. Set-up: method as in PMID 9170288. Particulars: in vitro; cited from earlier work.
For data set [14], the system named is Plasmodium falciparum schizonts. Set-up: method as in PMID 9170288. Particulars: in vitro; cited from earlier work.
The test system of data set [15] is human lymphocytes. Set-up: method as in PMID 9170288. Particulars: cited from earlier work.
The test system of data set [16] is Biomphalaria glabrata. Particulars: cited from earlier work.
Data set [17] has as its system Bulinus truncatus. Particulars: cited from earlier work.
The mark [18] stands for this setting: ref our previous studies, read-out: IC50 (remarkable antiproliferative activity).
Setting [19] is: read-out: Calculated IC50 Value (converted).

The text below walks through data of article PMC11279841, “New Members of the Centrapalus Coumarin and Pauciflorin Series from Centrapalus pauciflorus” (Pharmaceutics, 2024).

Read-outs that look alike come from different tables or passages of the source. Some results are limits rather than exact numbers.

Consider `C/C(=C\CC[C@@]1(C)C=Cc2c(O)cc(C)cc2O1)CC(=O)CC(C)C` [anthopogochromene B], for which the “cytotoxic activity (in words)” value in [1] is “moderate cytotoxic activity”.
Consider `C=C[C@]1(C)C[C@@H](C=C(C)C)Oc2c1c(=O)oc1cccc(C)c21` [Compound 7, Centrapalus coumarin A], for which the half-inhibitory concentration (IC50) is less than 10 µM in data set [2] (setting [18]); 9.21 µM in data set [3] (previous work, read-out: IC50); less than 10 µM in data set [3] (setting [18]); 19.7 µM in [4].
On to `N.N.[Cl][Pt][Cl]` [Cisplatin, cisplatin, reference compound], for which the “Inhibition (%) ± SEM” value was 66.91 ± 1.81% in [5] (MCF7, 10 µM); 96.80 ± 0.35% in data set [5] (MCF7, 30 µM); 42.72 ± 2.68% in data set [6] (MDA-MB-231, 10 µM); 86.44 ± 0.42% in data set [6] (MDA-MB-231, 30 µM); 42.61 ± 2.33% in data set [7] (10 µM); 99.93 ± 0.26% in [7] (30 µM). The “Inhibition (%) ± SEM” value in data set [8] (10 µM) came out at 60.98 ± 0.92%; in data set [8] (30 µM), 88.95 ± 0.53%; in data set [9] (A2780, 10 µM), 83.57 ± 2.21%; in data set [9] (A2780, 30 µM), 95.02 ± 0.28%; in data set [10] (NIH/3T3, 10 µM), 73.88 ± 1.63%; in data set [10] (NIH/3T3, 30 µM), 97.10 ± 0.15%. The half-maximal inhibitory concentration (IC50) in data set [5] (MCF7, read-out: Calculated IC50 Value (converted)) was 5.78 µM; in data set [6] (MDA-MB-231, read-out: Calculated IC50 Value (converted)), 10.2 µM; in data set [7] (setting [19]) it was 12.4 µM; in [8] (setting [19]), 4.29 µM; in data set [9], 1.3 µM; in data set [10] (NIH/3T3, read-out: Calculated IC50 Value (converted)) it was 5.5 µM.
On to `CC1=C[C@H](C[C@]2(C)c3c(c4c(C)cccc4oc3=O)O[C@@H]2C)OC1=O` [Compound 8, Hoehnelia coumarin], for which, in [11], the “antiproliferative activity (in words)” value is “ineffective”.
Turning to `C=C[C@@]1(C)C[C@@]2(C=C(C)C(=O)O2)Oc2c1c(=O)oc1cccc(C)c21` [Compound 6], the concentration for half-maximal inhibition (IC50) was 15.3 µM in data set [2] (previous work, read-out: IC50); 14.6 µM in [3] (previous work, read-out: IC50); 18.9 µM in data set [12]; 29.9 µM in [4].
As for pauciflorin F, the half-inhibitory concentration (IC50) in data set [2] (setting [18]) and in data set [3] (setting [18]) was less than 10 µM in each case.
Turning to centrapalus coumarin B, the half-maximal inhibitory concentration (IC50) in [2] (setting [18]) and in [3] (setting [18]) was less than 10 µM in each case.
For `Cc1cccc2oc(=O)c3c(c12)O[C@@H](C)[C@@]3(C)CC(=O)[C@@H]1OC1(C)C` [2′-epicycloisobrachycoumarinone epoxide], the “activity against Leishmania major promastigotes (in words)” value in data set [13] is on record as “exhibited activity”. Besides, the “activity against Plasmodium falciparum schizonts (in words)” value in [14] is on record as “exhibited activity”. The “inhibition on the proliferation of human lymphocytes (in words)” value in [15] is “weak inhibition”.
On to isoethuliacoumarin A, for which the “molluscicidal activity (in words)” value in [16] and in [17] was “molluscicidal activity” throughout.
As to `C=CC1(C)CC(=O)C2C(=O)c3c(C)cccc3OC21C1(C)Cc2c(c3c(C)cccc3oc2=O)O1` (centres unmarked) [Compound 2, centrapalus coumarin N], the inhibition at 10 µM in data set [5] (MCF7, 10 µM) was 34.6 ± 2.19%; in [6] (MDA-MB-231, 10 µM), less than 20%; in data set [7] (10 µM), less than 20%; in data set [8] (10 µM) it was less than 20%; in data set [9] (Homo sapiens, A2780, 10 µM) it was 27.7 ± 1.34%; in data set [10] (NIH/3T3, 10 µM), less than 20%. The inhibition at 30 µM in data set [5] (MCF7, 30 µM) came to 44.2 ± 1.76%; in data set [6] (MDA-MB-231, 30 µM), 25.4 ± 2.06%; in data set [7] (30 µM), 41.8 ± 1.42%; in data set [8] (30 µM) it was 30.7 ± 1.49%; in [9] (Homo sapiens, A2780, 30 µM) it was 66.2 ± 0.7%; in data set [10] (NIH/3T3, 30 µM) it was 48.5 ± 2.2%. Further, the IC50 in data set [9] (Homo sapiens) was 20.1 µM. Also, the “antiproliferative activity against ovarian cancer cells (in words)” value in [9] was “considerable and selective”. For the same compound, the “action against fibroblasts (in words)” value in [10] was “weak action”.
Consider Ethuliacoumarin A, for which the “molluscicidal activity (in words)” value in data set [16] and in [17] was “molluscicidal activity” in each case.
For the compound centrapalus coumarin F, the IC50 in data set [2] (setting [18]) and in data set [3] (setting [18]) was less than 10 µM each time.
For the compound `C=C[C@@]1(C)C[C@@H](/C=C(\C)C(=O)OC)Oc2c1c(=O)oc1cccc(C)c21` [Compound 5, (3′R),(5′S)-(E)-methyl 3-(4,10-dimethyl-5-oxo-4-vinyl-2,3,4,5-tetrahydropyrano[3,2-c]chromen-2-yl)-2-methyl acrylate], the inhibition at 10 µM was less than 20% in data set [5] (MCF7, 10 µM); less than 20% in [6] (MDA-MB-231, 10 µM); less than 20% in data set [7] (10 µM); less than 20% in [8] (10 µM); 27.4 ± 1.55% in data set [9] (Homo sapiens, A2780, 10 µM); less than 20% in data set [10] (NIH/3T3, 10 µM). Also, the inhibition at 30 µM was found to be 35.5 ± 1.51% in data set [5] (MCF7, 30 µM); 25.5 ± 1.2% in data set [6] (MDA-MB-231, 30 µM); 31.3 ± 1.18% in data set [7] (30 µM); 33.3 ± 1.32% in [8] (30 µM); 69.3 ± 1.12% in data set [9] (Homo sapiens, A2780, 30 µM); 28.4 ± 2.5% in data set [10] (NIH/3T3, 30 µM). In [9] (Homo sapiens), the concentration for half-maximal inhibition (IC50) is 16 µM. Further, in data set [9], the “antiproliferative activity against ovarian cancer cells (in words)” value is “considerable and selective”. Besides, the “action against fibroblasts (in words)” value in data set [10] is given as “weak action”.
With `Cc1cccc2oc(=O)c3c(c12)O[C@H](C)[C@@]3(C)CC(=O)[C@@H]1OC1(C)C` [cycloisobrachycoumarinone epoxide], the “activity against Leishmania major promastigotes (in words)” value in data set [13] is given as “exhibited activity”. Further, in data set [14], the “activity against Plasmodium falciparum schizonts (in words)” value is listed as “exhibited activity”. For the same compound, the “inhibition on the proliferation of human lymphocytes (in words)” value in data set [15] is listed as “weak inhibition”.

For orientation: IC50 means the concentration at which inhibition is half-maximal. By inhibition is commonly meant how much of the control response was suppressed.
